Source: patent publication US20180116209A1, “Liposome Formulations” (priority 2012, published 2018)

What was measured:
Root-Knot larvae (J2) = experiment: Efficacy of nematicides (Oxamyl, Thiodicarb) in killing Root-Knot larvae (J2) in vitro; type: in vivo, M. incognita; conditions: compared with Oxamyl, 200 ug to 10 mg
Experimental: M. incognita eggs collected from tomato cultures by NaOC1 extraction (Hussey and Barker, 1973). Briefly, six to twelve week old infected tomato roots were cut into 1-2 segment. Root segments were shacked vigorously in 200 ml of a 0.5% Na O Cl solution for 4 min. Then, the Na O Cl solution was passed quickly through a 200-mesh (75-um), nested over a 500-mesh sieve to collect freed eggs. The a 500-mesh sieve with eggs was quickly placed under a stream of cold water to remove residual Na O Cl and rinsed several times. About 50 ml aqueous suspension of eggs was collected and number of eggs per unit volume will be counted. The egg suspension was allowed to sit at room temperature for 4 days. The hatching juveniles were collected and used in the subsequent experiments.
Determine the efficient concentration of nematicides (Oxamyl and Thidiocarb) that kill or suppress Root-Knot Larvae.
M. incognita eggs collected from tomato cultures by NaOC1 extraction (Hussey & Barker, Plant Disease Reporter. 57:1025-1028 (1973)). Egg suspension was incubated at room temperature until larvae were hatched (4-5 days). The juveniles (J2) were counted and evaluated for activity/mobility for the duration of the study. Four different concentrations of both nematicides (Oxamyl and Thiodicarb) were used to assess their efficacy in killing the nematodes. These were untreated control, 200 ug, 1 mg, 2 mg, and 10 mg. […]

plant roots = experiment: Abamectin applied to soil prior to planting: gall formation, root necrosis, root length; type: in vivo
Experimental: Abamectin at 5 μg or 1 μg was directly applied to soil prior to planting. Alternatively abamectin was loaded into liposomes at either 5 μg or 1 μg and applied to soil prior to planting. Gall formation was detected. […] Therefore, liposomal abamectin formulations enhance root length as compared to non-liposomal abamectin formulations.

[1] = test system: nematodes in a dehydrated state; conditions: dry soils; cited from earlier work

CS/C(C)=N\OC(=O)N(C)SN(C)C(=O)O/N=C(\C)SC [Larvin (Thiodicarb), Thiodicarb]
concentration needed to kill Root-Knot (J2) (Root-Knot larvae (J2)): required higher concentration to kill Root-Knot (J2)

abamectin [non-liposomal abamectin]
root necrosis (plant roots; 1 μg applied to soil prior to planting, FIG. 4): most root necrosis followed by the non-liposomal abamectin 1 μg application
gall formation (plant roots; 5 μg applied to soil prior to planting, FIG. 3): most gall formulation followed by the non-liposomal abamectin 5 μg application

CBr [methyl bromide]
tolerated dose compared to active forms in moist soil [1]: 10 times the lethal dose
